In general, melting point refers to the temperature, or range, at which the solid turns liquid.

Non-standard residues stand in square brackets, D forms with d. Residues, ends and D or L forms follow the SMILES beside them. ξ: configuration not given here. *: point of attachment. Cbz = O=C(OCc1ccccc1)*; Boc = CC(C)(C)OC(=O)*; Aib = CC(C)(N)C(=O)O; ξDap = NCC(N)C(=O)O

Compound `COc1ccc2c3c(c4cc(OC)c(OC)cc4c2c1)C[C@H](CO)N(C(=O)OC(C)(C)C)C3` yielded a melting point of 105 to 107 °C.
`CC(=O)ON1C(C)(C)CC2(CC1(C)C)OCC(C)(C)CO2`: the melting point is 109 to 111 °C.
For `CCOC(=O)[C@H](NS(=O)(=O)c1ccc(C)cc1)[C@@H]1CO[C@@H](c2ccccc2)C1` the value was 97 to 99 °C; for `C=C(c1ccccc1)C(c1ccc(F)cc1)C(O)n1ncnc1S` (stereo not drawn), 54 to 58 °C; for `Cc1cc(C#N)c(O)c(C(=O)O)c1`, 213 to 214 °C.
For `FC1(F)CCC(n2ncc3c(Br)cncc32)CC1` the value was 172 to 173 °C.
For `NC(=O)c1ccc2cc(Nc3ccc(O)cc3)ccc2c1` the value was 260 °C.
In turn, `Cc1ccc(C(=O)c2cccc(S)n2)cc1` had a melting point of 179 to 181 °C.
As for `Cc1ccc(Oc2ccc(-c3cccs3)cc2O)c(O)c1`, the melting point is 91 to 92 °C.
For `CC(C)OC(=O)c1cc(Cl)c(Cl)c(-c2ccc(Cl)cc2)n1` the value was 133 to 135 °C; for `CC(C)(C)c1cc(CC2=NC(=S)SC2)cc(C(C)(C)C)c1O`, 138 to 140 °C; for `CCc1sc2nc(C(=O)OC)cn2c1C`, 94 to 95 °C.
With `CCC(=O)Nc1cc(-c2cccnc2)nc(-c2ccco2)n1` the figure was 252 to 253 °C; with `CC1(C)OC(c2ccc(S(N)(=O)=O)cc2)=C(c2cc3ccccc3o2)C1=O`, 143 to 145 °C; with `C=C1SC(=O)N(c2ccc3cc(-c4ccc(OC)c(C(C)(C)C)c4)ccc3c2)C1=O`, 274 to 276 °C.
For `CCOC(=O)COc1cccc2c1CC(Br)C2=O` (stereo not drawn) the value was 60 to 63 °C; for `O=C(O[C@H]1Cc2c(O)cc(O)cc2O[C@@H]1c1ccc(O)cc1)c1cc(O)c(O)c(O)c1`, 96 to 98 °C; for `N=C(N)c1ccc2cc(OC(=O)C3CCC3)ccc2c1`, 225 to 230 °C.
`CC(=O)Nc1cc([N+](=O)[O-])cc([N+](=O)[O-])c1` showed a melting point of 189 to 191 °C.
With `NCC1Cc2c(ccc3c2CCCC3)O1` (stereo not drawn) the figure was over 225 °C; with `CC(C)S(=O)(=O)N1CCN(Cc2ccc(COc3cccc4c3CN(C3CCC(=O)NC3=O)C4=O)cc2)CC1` (stereo not drawn), 233 to 235 °C; with `O=C1Cc2ccccc2N1Nc1ccncc1F`, 181 to 183 °C.
In the case of `CCC1CC2=C(CO1)C(=O)c1ccccc1C2=O` (stereo not drawn), the melting point fell in the range of 98 to 101 °C.
For `CC(C)Nc1cccnc1N1CCN(C(=O)c2ccc(C(=O)N[C@H](C)CO)cn2)CC1` the value was 129 to 130 °C; for `O=C(NC1N=C(c2ccccc2)c2oc3ccccc3c2NC1=O)OCc1ccccc1` (stereo not drawn), over 260 °C.
`COc1cc(N)ccc1OCCCN1CCN(c2ccccc2)CC1` gave a melting point of 112 to 113 °C.
With `CS(=O)(=O)c1nccc(Oc2ccccc2)n1` the figure was 113 to 116 °C.
For `Clc1cc2c(cc1Cl)Nc1ccccc1C(NCc1cccnc1)=N2` the value was 209 to 210 °C; for `CCOC(=O)c1cc2cc(OCCCOC)cc([N+](=O)[O-])c2[nH]1`, 94 to 95 °C.
For `Cn1nc(-c2cc(CO)c(Cl)cc2F)c(Cl)c1C(F)(F)F` the value was 90 °C.
Consider `CC12CCC(C(=Cc3ccccc3[N+](=O)[O-])C1=O)C2(C)C` (stereo not drawn), for which the melting point was 118 °C.
For `OCc1ncc2n1-c1ccc(Cl)cc1C(c1ccccc1F)=NC2` the value was 258 to 260 °C.
With `CCOC(=O)c1nnc(-c2cc3sc(C)c(N(C)S(=O)(=O)c4cccs4)c3[nH]2)s1` the figure was 209 °C; with `CCCCCN=C1SC(=CC(=O)O)C(=O)N1CCCCC`, 85 to 88 °C; with `O=C1CCCN1c1cccc(C(F)(F)F)c1`, 65 to 66 °C.
For `COC(=O)C(CNC(=O)OC(C)(C)C)NC(=O)C(C)(C)NC(=O)OCc1ccccc1` (stereo not drawn) (Cbz-[Aib]-[ξDap](Boc)-OMe) the value was 100 to 101 °C; for `COc1ccc(-c2c(O)c3ccccc3[nH]c2=O)cc1OC`, 312 to 314 °C.
Consider `CCOC(=O)N1CCC(Nc2nccc(Oc3ccc(NC(=O)c4cc(F)cc(N5CCOCC5)c4)c4ccccc34)n2)CC1`, for which the melting point fell in the range of 122 to 124 °C.
For `CCOC(=O)c1ccc(C(=O)c2c(N)sc3c2CCN(C(=O)OCc2ccccc2)C3)cc1`, the melting point lay in the range of 195 to 196 °C.
The compound `Cc1nccn1-c1nc(-c2ccc(Cl)cc2)c(CCCN2C(=O)CNC2=O)o1` came in with a melting point of 197 to 198 °C.
Compound `CCCn1nc(C(=O)O)cc1CC(C)(C)NC(=O)OC(C)(C)C` came in with a melting point of 151 to 152 °C.
For `Cc1ccc(I(Cl)Cl)c([N+](=O)[O-])c1` the value was 50 to 52 °C; for `COc1cccc(CCc2c(CCNC(=O)CCCCC(=O)NCCc3ccc(NS(C)(=O)=O)cc3)ccc(OC)c2OC)c1`, 157 to 159 °C.
With `Cn1c(CN)nc(-c2ccncn2)cc1=O` the figure was 153 to 155 °C; with `CC(C)(C)CNc1cc(Cl)nc(N2CCCC2)n1`, 130 to 135 °C; with `CC(=O)NCCNC(=O)c1[nH]c(C)c(-c2nc3ccc(C(=O)c4ccccc4)cc3[nH]2)c1C`, 272 to 273 °C.
`Cc1cn(-c2cc(NC(=O)c3ccc(Cl)c(C#Cc4cnc(NC5CC5)nc4)c3)cc(C(F)(F)F)c2)cn1` gave a melting point of 163 to 165 °C.
Consider `Cc1cccc(-c2nccc(Cl)n2)c1`, for which the melting point lay within 74 to 75 °C.
With `O=C1C=CCC(c2ccccc2)(c2ccccc2)O1` the figure was 170 to 173 °C; with `CCN1C(=O)C(C(=O)c2ccco2)c2cc(Cl)cnc21` (stereo not drawn), 162 to 163 °C; with `O=C(NC1CCCN(Cc2ccccc2)C1)c1ccc2[nH]ncc2c1` (stereo not drawn), 203 to 204 °C.
For `CCOC(=O)c1ccc(C#Cc2ccc(C)cc2)c(OC)c1` the value was 71 to 73 °C; for `COC(=O)/C=C/c1ccc(CC(C)NCC(O)c2cccc(F)c2)cc1` (stereo not drawn), 75 to 110 °C.
For `Cn1cc([N+](=O)[O-])c(C(=O)NC2CCCC2)n1` the value was 176 to 177 °C; for `CC(=O)Cn1c(Oc2ccc(-n3c4ncccc4n4ccnc34)cc2)nc2ccccc21`, 189 to 192 °C.
`NC(=O)c1ccc(Cn2ccc(OCc3ccc(F)cc3F)c(Cl)c2=O)cc1`: the melting point lay in the range of 235 to 238 °C.
With `O=C1[C@H]2CCC[C@H]2N(C(=O)CCCCCBr)c2ccccc2N1Cc1ccccc1` (relative stereo) the figure was 111 to 112 °C; with `CNc1cccc(C(C)=O)c1OCCCN1CCC(c2noc3cc(F)ccc23)CC1`, 151 to 153 °C; with `COc1ccc(Oc2ccc3ccc(NC(=O)c4ccc(OC)cc4)nc3n2)cc1`, 163 °C.
For `CCOC(=O)c1cnn2c1c(N)nc1ccccc12` the value was 235 to 237 °C; for `CC(C)(C)c1ccc(CCC(=O)CC2CCCCC2)cc1NC(=O)CC1c2ccccc2Oc2ccccc21`, 154 to 155 °C.
For `COc1cc(C(=O)N2Cc3ccc(C(=O)NCc4ccc(C)cc4C)n3Cc3ccccc32)ccc1-c1ccccc1C` the value was 161 to 162 °C; for `Cn1c(=Nc2nc(C(Cl)(Cl)Cl)nc(C(Cl)(Cl)Cl)n2)sc2ccccc21`, 251 to 253 °C; for `CCCCCCCCc1ncc(-c2ccc(OC(=O)[C@H]3CCCO3)cc2)cn1`, 68 °C.
The compound `CC(=O)Oc1c(C(C)(C)C)cc2c(c1C(C)(C)C)C=CS2(=O)=O` gave a melting point of 195 °C.
As to `O=Cc1csc2ccc(O)cc12`, the melting point came to 200 °C.
For `CCCc1c(OCC(O)CS(=O)(=O)c2ccc(CC(=O)O)c(Cl)c2Cl)ccc(C(C)=O)c1O` (stereo not drawn) the value was 181 to 183 °C; for `CCOC(=O)c1ccc(-c2ncc(C#Cc3ccccc3)s2)s1`, 137 to 141 °C; for `Cc1c(N2CCC(O)CC2)c(F)cc2c(=O)c(C(=O)O)cn(C3CC3)c12`, 234 to 236 °C.
With `CC(C)(C)OC(=O)NCC(=O)NC(Cc1ccc(O)cc1)C(=O)NC(CCCCN)C(=O)O` (stereo not drawn) (Boc-Gly-Tyr-Lys-OH; configuration not given here) the figure was over 200 °C.
With `CCOC(OCC)c1cn2cccc(CO)c2n1` the figure was 87 to 89 °C; with `N#Cc1cccc(C2=Nc3ccc(C#CC4(O)CCCCC4)cc3NC(=O)C2)c1`, 196 °C.
In turn, `O=[N+]([O-])c1ccccc1N1CCc2cc(Cl)ccc21` gave a melting point of 85 to 89 °C.
For `CN(C)C1CCN(C(=O)C2CCC(Nc3nccc(-n4ccc5c(OCCCS(C)(=O)=O)cccc54)n3)CC2)CC1` (stereo not drawn) the value was 182 to 183 °C; for `COc1ccc([N+](=O)[O-])c(C#N)c1C`, 128 to 130 °C.
The compound `O=C(CNC(=O)c1ccc([N+](=O)[O-])c(I)c1)OCC(Cl)(Cl)Cl` registered a melting point of 98 to 100 °C.
`CCCc1ccc(S(=O)(=O)Nc2ccc3ncncc3c2)cc1` yielded a melting point of 202 to 203 °C.
For `CC(=O)c1ccc(O)c(CS(C)(=O)=O)c1` the value was 206 to 208 °C.
For `CC(C)(C)c1csc(-c2cc3cc(C=O)ccc3o2)n1` the value was 83 to 84 °C.
As for `O=c1[nH]c2c(n3ccnc13)Cc1ccccc1-2`, the melting point came out at 350 °C.
With `O=C(NCc1ccc(C(F)(F)F)cc1)Nc1cccc2[nH]ccc12` the figure was 178 °C.
`Cn1nc(COc2ccc(C=O)cc2)c2ccccc2c1=O`: the melting point fell in the range of 168 to 170 °C.
`CN1CCCN(C(=O)Nc2ccccc2Cc2ncc[nH]2)CC1` returned a melting point of 139 to 143 °C.
For `Cc1c2c(cn1C)NC(=O)C(OC(=O)CCCN1C(=O)c3ccccc3C1=O)N=C2c1ccccc1` (stereo not drawn) the value was 210 to 212 °C; for `N#CCC1CC(=O)N(c2ccc(F)cc2)C1=O` (stereo not drawn), 97 °C.
With `COCCOc1ccc(CN2C(=O)C3(COc4cc5c(cc43)OCCO5)c3ccccc32)cc1` (stereo not drawn) the figure was 124 to 125 °C; with `CC(=O)Oc1ccc(C2COc3cc(OC(C)=O)cc(C)c3C2=O)cc1` (stereo not drawn), 143 to 145 °C; with `CC(C)=CCC/C(C)=C/COc1c(I)c(C)c(I)c(C)c1I`, 65 to 66 °C.

The record behind these values is a melting point compilation (Tetko et al.; mined from patent text by program, amines drawn as free bases though some values may be those of a salt).
